# Source: patent US8389538B2, “Rexinoid compound having alkoxy group” (National University Corporation Okayama University, priority 2007, dated 2013)
# System: Human leukemia cell strain HL-60
# Experiment: HL-60 differentiation induction (NBT reduction method)
# Format: cell-based
# Settings: Am80 present at 3.3×10^−10 M; half of maximum differentiation inducing rate; read-out: Retinoid synergistic activity SEC50
# Description: Human leukemia cell strain HL-60 differentiates into granulocytes (neutrophils) to come to have an ability to express active oxygen. […] A method for measuring differentiation inducibility of cells into granulocytes by using this principle is referred to as NBT reduction method. So, the differentiation inducibility of the synthesized compound was measured by NBT reduction method. […] Each compound was dissolved in dimethylsulfoxide (DMSO) into 20 mM to prepare a stock solution. NBT was prepared into 0.2 w/v % by using PBS (−) 2 hours before use and incubated at 37° C. TPA was dissolved in ethanol (EtOH) into 2 mg/mL to prepare a stock solution. This TPA solution was prepared into 20 μg/mL by using PBS (−) at the time of use. […] The action of RXR agonist is enhanced by the combined use of that and RAR agonist. […] After four days cultivation, cells were collected by centrifugation (4° C., 1500 rpm, 5 minutes). After these cells were seeded onto 1 mL of a fresh growth medium, then 1 mL of 0.2 w/v % NBT solution and 20 μl of 20 μg/ml of TPA solution were added, and incubation was carried out in the incubator containing 5% CO2 at 37° C. for 30 minutes. Then, stained cell number and total cell number were counted on a cell counter. Meanwhile, the measurement was conducted three times by counting 200 cells or more at a time and a differentiation inducing rate was calculated from a mean value obtained by averaging them. […] Meanwhile, “inert” means that differentiation inducibility can not be observed even at 10 μM. Likewise, b) BA (bioactivity) (%) refers to the maximum differentiation inducing rate relative to the total cell number in this test.
row,EC50 [nM],SMILES
1,800,CCCOc1cc(N(c2ccc(C(=O)O)cn2)S(C)(=O)=O)ccc1C(C)C [Compound 2b]
2,> 10000,CCCOc1ccc(Nc2ccc(C(=O)O)cn2)cc1C(C)C [Compound 5c]
3,> 10000,CC(C)Oc1ccc(Nc2ccc(C(=O)O)cn2)cc1C(C)C [Compound 4c]

# Continued, compound first:
row,SMILES,EC50 [nM]
1,CCCOc1cc(N(CC)c2ccc(C(=O)O)cn2)ccc1C(C)C [Compound 2a],23
2,CC(C)Oc1cc(Nc2ccc(C(=O)O)cn2)ccc1C(C)C [Compound 1c],4500
3,CCN(c1ccc(C(C)C)c(OC(C)C)c1)c1ccc(C(=O)O)cn1 [Compound 1a],10

# Same assay, conditions: Am80 present at 3.3×10^−10 M; maximum differentiation inducing rate relative to total cell number
row,SMILES,Retinoid synergistic activity BA(%)
1,CCCOc1cc(N(CC)c2ccc(C(=O)O)cn2)ccc1C(C)C [Compound 2a],74
2,CC(C)Oc1cc(Nc2ccc(C(=O)O)cn2)ccc1C(C)C [Compound 1c],63
3,CCCOc1cc(N(c2ccc(C(=O)O)cn2)S(C)(=O)=O)ccc1C(C)C [Compound 2b],63
4,CCCOc1ccc(Nc2ccc(C(=O)O)cn2)cc1C(C)C [Compound 5c],15
5,CC(C)Oc1ccc(Nc2ccc(C(=O)O)cn2)cc1C(C)C [Compound 4c],29
6,CCN(c1ccc(C(C)C)c(OC(C)C)c1)c1ccc(C(=O)O)cn1 [Compound 1a],80

# Same assay, conditions: Homo sapiens, HL-60, 96 h; test compound alone; concentration giving half of maximum differentiation inducing rate; four days culture; read-out: Retinoid activity EC50
row,EC50 [nM],SMILES
1,> 10000,CCN(c1ccc(C(C)C)c(OC(C)C)c1)c1ccc(C(=O)O)cn1 [Compound 1a]

# Same assay, conditions: test compound alone; concentration giving half of maximum differentiation inducing rate; four days culture; read-out: Retinoid activity EC50
row,EC50 [nM],SMILES
1,> 10000,CCCOc1cc(N(c2ccc(C(=O)O)cn2)S(C)(=O)=O)ccc1C(C)C [Compound 2b]
2,> 10000,CCCOc1ccc(Nc2ccc(C(=O)O)cn2)cc1C(C)C [Compound 5c]
3,> 10000,CC(C)Oc1ccc(Nc2ccc(C(=O)O)cn2)cc1C(C)C [Compound 4c]

# More lines, now with the values behind:
row,SMILES,EC50 [nM]
1,CCCOc1cc(N(CC)c2ccc(C(=O)O)cn2)ccc1C(C)C [Compound 2a],> 10000
2,CC(C)Oc1cc(Nc2ccc(C(=O)O)cn2)ccc1C(C)C [Compound 1c],> 10000

# Same assay, conditions: test compound alone; maximum differentiation inducing rate relative to total cell number
row,SMILES,Retinoid activity BA(%)
1,CCCOc1cc(N(CC)c2ccc(C(=O)O)cn2)ccc1C(C)C [Compound 2a],4
2,CC(C)Oc1cc(Nc2ccc(C(=O)O)cn2)ccc1C(C)C [Compound 1c],24
3,CCCOc1cc(N(c2ccc(C(=O)O)cn2)S(C)(=O)=O)ccc1C(C)C [Compound 2b],50
4,CCCOc1ccc(Nc2ccc(C(=O)O)cn2)cc1C(C)C [Compound 5c],3
5,CC(C)Oc1ccc(Nc2ccc(C(=O)O)cn2)cc1C(C)C [Compound 4c],24
6,CCN(c1ccc(C(C)C)c(OC(C)C)c1)c1ccc(C(=O)O)cn1 [Compound 1a],4

# Target: T1, RXRα (Homo sapiens, UniProt P19793)
# T1 construct: expressed in transfected cells; host or cells: COS-1 cells
# T1 sequence (P19793 1-462): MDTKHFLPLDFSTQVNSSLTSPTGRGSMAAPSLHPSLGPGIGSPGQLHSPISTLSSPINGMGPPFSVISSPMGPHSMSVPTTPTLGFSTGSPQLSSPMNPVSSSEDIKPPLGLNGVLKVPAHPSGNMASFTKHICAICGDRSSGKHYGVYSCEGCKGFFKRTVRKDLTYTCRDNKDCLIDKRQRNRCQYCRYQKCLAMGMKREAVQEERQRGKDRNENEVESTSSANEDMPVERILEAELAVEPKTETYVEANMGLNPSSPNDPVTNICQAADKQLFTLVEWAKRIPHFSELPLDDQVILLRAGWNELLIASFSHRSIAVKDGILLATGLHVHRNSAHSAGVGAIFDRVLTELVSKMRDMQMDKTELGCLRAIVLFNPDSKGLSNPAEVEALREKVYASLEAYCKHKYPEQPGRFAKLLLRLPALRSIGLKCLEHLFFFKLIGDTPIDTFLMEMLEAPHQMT
# Experiment: RXR reporter gene assay (luciferase) in COS-1 cells, RXRα
# Format: cell-based
# Settings: COS-1
# Description: (§1) Most of nuclear receptors are transcription factors associated with regulating transcription, so that reporter gene assay is conducted as a means of measuring its transcription activity. An expression plasmid for RXR receptor protein and a reporter plasmid were introduced into cells such as COS-1 cells and HeLa cells to cause overexpression. And, when RXR agonist is bound to the receptor, transcription is induced in a ligand dependent manner, and a protein which is referred to as fusion protein downstream is produced. The binding of this fusion protein to the binding site on the reporter plasmid initiates the transcription to produce luciferase downstream. RXR agonistic activity was measured by measuring this luciferase activity.
# (§2) Dulbecco's Modified Eagle MEM medium (DMEM) was used as growth medium.
# (§3) Passage was conducted by removing culture supernatant from the cell culture grown in a 100 mm culture dish, collecting cells by trypsinization, centrifuging at 1000 rpm at 4° C. for 3 minutes, then dispersing cells by adding growth medium and growing them in a 100 mm culture dish (15 mL of growth medium) at 37° C. in the presence of 5% CO2.
# (§4) Transformation was conducted using Effectene™ Transfection Reagent (QIAGEN). Further, Luciferase Assay System was used for evaluating luciferase activity. Am80 was used for the positive control of RAR, and 9-cis retinoic acid was used for the positive control of RXR. They were dissolved in DMSO for use as a stock solution and measured on every plate to be assayed.
# (§5) • On day 1: COS-1 cells were seeded along with 15 mL of growth medium in a 60 mm culture dish at 50×10^4 cells and were cultured over night. • On day 2: Transformation was conducted by lipofection using Effectene™ Transfection Reagent. • On day 3: 16 to 18 hours later, the culture supernatant was removed, cells were collected by trypsinization, centrifugation was conducted at 1000 rpm at 4° C. for 3 minutes, then cells were dispersed by adding growth medium, and then the cells were seeded on a 96-well white plate at 2.0×10^4 cells/well. Then, each compound was added at DMSO concentration of 1% or below. • On day 4: 24 hours later, 25 μL of the supernatant was used for SEAP measurement, and the rest cell-containing solution was used for measuring luciferase activity.
# (§6) In Table 5, a) EC50 indicated a concentration giving the half of the maximum transcriptional activation potential.
row,Emax [%],SMILES
1,130,CCN(c1ccc(C(C)C)c(OC(C)C)c1)c1ccc(C(=O)O)cn1 [Compound 1a]

# Same assay, conditions: COS-1 cells; half of maximum transcriptional activation potential
row,EC50 [nM],SMILES
1,27,CCN(c1ccc(C(C)C)c(OC(C)C)c1)c1ccc(C(=O)O)cn1 [Compound 1a]

# Same assay, conditions: reporter gene assay; RXRα/β versus RXRγ
row,selectivity for RXRα/β over RXRγ [times],SMILES
1,≥ 10,CCN(c1ccc(C(C)C)c(OC(C)C)c1)c1ccc(C(=O)O)cn1 [Compound 1a]

# System: edema induced by carrageenin
# Experiment: Carrageenin edema test
# Format: in vivo
# Settings: rats, 10 mg/kg oral, 3 hours before carrageenin; 3 hours after the administration of carrageenin; hind foot pads
# Description: Carrageenin edema test was used for anti-inflammatory test by using rats. 10 mg/kg compound 1a (NEt-3IP) was orally administered to five rats in a group, and then 3 hours later, 1% carrageenin solution, which was an edema-inducing substance, was subcutaneously administered to the hind foot pads (0.1 mL/rat). Then, 1, 2, 3 and 4 hours after that, the thickness of edema of the hind foot pads was measured. […] The rate of inhibiting edema was 27% 3 hours after the administration of carrageenin.
row,SMILES,rate of inhibiting edema [%]
1,CCN(c1ccc(C(C)C)c(OC(C)C)c1)c1ccc(C(=O)O)cn1 [Compound 1a],27

# Target: T2, RXRγ (Homo sapiens, UniProt P48443)
# T2 construct: expressed in transfected cells; host or cells: COS-1 cells
# T2 sequence (P48443 1-463): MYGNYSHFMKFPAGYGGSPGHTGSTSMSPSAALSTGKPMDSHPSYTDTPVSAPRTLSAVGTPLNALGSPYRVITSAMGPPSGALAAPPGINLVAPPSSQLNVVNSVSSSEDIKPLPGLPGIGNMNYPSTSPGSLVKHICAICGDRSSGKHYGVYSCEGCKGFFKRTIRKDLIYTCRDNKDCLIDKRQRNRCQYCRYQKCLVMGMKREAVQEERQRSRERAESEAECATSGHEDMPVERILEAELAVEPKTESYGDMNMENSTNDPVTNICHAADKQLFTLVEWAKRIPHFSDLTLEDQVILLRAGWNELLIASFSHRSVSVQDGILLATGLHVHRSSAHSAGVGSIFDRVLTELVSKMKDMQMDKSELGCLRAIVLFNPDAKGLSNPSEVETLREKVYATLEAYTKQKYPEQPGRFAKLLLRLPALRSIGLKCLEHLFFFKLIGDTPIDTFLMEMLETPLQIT
# Experiment: RXR reporter gene assay (luciferase) in COS-1 cells, RXRγ
# Format: cell-based
# Settings: COS-1
# Description: as §1, §2, §3, §4, §5, §6
row,Emax [%],SMILES
1,> 88,CCN(c1ccc(C(C)C)c(OC(C)C)c1)c1ccc(C(=O)O)cn1 [Compound 1a]

# Same assay, conditions: COS-1 cells; half of maximum transcriptional activation potential
row,EC50 [nM],SMILES
1,> 380,CCN(c1ccc(C(C)C)c(OC(C)C)c1)c1ccc(C(=O)O)cn1 [Compound 1a]

# Target: T3, RXRβ (Homo sapiens, UniProt P28702)
# T3 construct: expressed in transfected cells; host or cells: COS-1 cells
# T3 sequence (P28702 1-533): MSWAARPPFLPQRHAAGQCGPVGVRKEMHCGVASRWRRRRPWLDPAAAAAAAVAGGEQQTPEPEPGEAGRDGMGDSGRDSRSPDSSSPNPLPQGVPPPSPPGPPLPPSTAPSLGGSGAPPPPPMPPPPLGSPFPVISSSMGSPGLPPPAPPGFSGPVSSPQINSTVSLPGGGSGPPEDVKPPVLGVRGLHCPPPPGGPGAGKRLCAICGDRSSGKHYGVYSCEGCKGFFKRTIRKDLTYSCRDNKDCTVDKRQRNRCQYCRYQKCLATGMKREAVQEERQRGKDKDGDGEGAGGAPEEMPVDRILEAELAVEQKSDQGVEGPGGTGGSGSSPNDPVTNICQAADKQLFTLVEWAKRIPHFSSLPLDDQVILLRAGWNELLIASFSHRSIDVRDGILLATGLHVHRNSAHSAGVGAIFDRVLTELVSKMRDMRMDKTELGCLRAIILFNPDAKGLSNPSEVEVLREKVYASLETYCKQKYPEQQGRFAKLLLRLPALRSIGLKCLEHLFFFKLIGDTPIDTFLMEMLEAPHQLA
# Experiment: RXR reporter gene assay (luciferase) in COS-1 cells, RXRβ
# Format: cell-based
# Settings: COS-1
# Description: as §1, §2, §3, §4, §5, §6
row,Emax [%],SMILES
1,110,CCN(c1ccc(C(C)C)c(OC(C)C)c1)c1ccc(C(=O)O)cn1 [Compound 1a]

# Same assay, conditions: COS-1 cells; half of maximum transcriptional activation potential
row,EC50 [nM],SMILES
1,35,CCN(c1ccc(C(C)C)c(OC(C)C)c1)c1ccc(C(=O)O)cn1 [Compound 1a]
